Columns and labels:
[1] = system: Pigweed (redroot) (Amaranthus retroflexus); experiment: Preemergence herbicidal activity, soil spray; assay type: in vivo; conditions: Amaranthus retroflexus, pre-emergence, 504 h, Table 5, visual score after 3 weeks, read-out: Pre-emergent % control AMARE; for pest or weed control at 560 ppm: rate 560 ppm; for pest or weed control at 140 ppm: rate 140 ppm
In short: (§1)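 Seeds were sown in a 70:30 loam–sand mix (pH about 8.1, about 1.5% organic matter), and test compound from acetone:DMSO 97:3 stocks, diluted in 99.9:0.1 water:Tween 155, was sprayed evenly on the soil surface before emergence. Pots were held in a greenhouse under an approximate 15 hr photoperiod with top-irrigation.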

[2] = system: Giant Foxtail (Setaria faberi); experiment: Preemergence herbicidal activity, soil spray; assay type: in vivo; conditions: Setaria faberi, pre-emergence, 504 h, Table 5, visual score after 3 weeks, read-out: Pre-emergent % control SETFA; for pest or weed control at 560 ppm: rate 560 ppm; for pest or weed control at 140 ppm: rate 140 ppm
In short: as §1

[3] = system: Lambsquarter (Chenopodium album); experiment: Preemergence herbicidal activity, soil spray; assay type: in vivo; conditions: Chenopodium album, pre-emergence, 504 h, Table 5, visual score after 3 weeks, read-out: Pre-emergent % control CHEAL; for pest or weed control at 560 ppm: rate 560 ppm, 100 complete kill or no germination; for pest or weed control at 140 ppm: rate 140 ppm
In short: as §1

[4] = system: Crabgrass(large) (Digitaria sanguinalis); experiment: Preemergence herbicidal activity, soil spray; assay type: in vivo; conditions: Digitaria sanguinalis, pre-emergence, 504 h, Table 5, visual score after 3 weeks, read-out: Pre-emergent % control DIGSA; for pest or weed control at 560 ppm: rate 560 ppm; for pest or weed control at 140 ppm: rate 140 ppm
In short: as §1

[5] = system: Yellow nutsedge (Cyperus esculentus); experiment: Postemergence herbicidal activity, greenhouse spray; assay type: in vivo; conditions: Cyperus, post-emergence, 336 h, visual score after 2 weeks, read-out: Post-emergent % control CYPES; for pest or weed control at 500 ppm / pest or weed control at 250 ppm: Table 1; for pest or weed control at 500 ppm: rate 500 ppm; for pest or weed control at 125 ppm: Table 2, rate 125 ppm; for pest or weed control at 250 ppm: rate 250 ppm
In short: (§2)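 Test compounds, dissolved in 97:3 acetone/DMSO and serially diluted in an aqueous surfactant and crop oil mixture, were applied postemergence to young plants at the one- to two-true-leaf stage, with carrier-only sprays as controls.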

[6] = system: Barnyardgrass (Echinochloa crus-galli); experiment: as above; assay type: in vivo; conditions: Echinochloa crus-galli, post-emergence, 336 h, visual score after 2 weeks, read-out: Post-emergent % control ECHCG; for pest or weed control at 500 ppm / pest or weed control at 250 ppm: Table 1; for pest or weed control at 500 ppm: rate 500 ppm; for pest or weed control at 125 ppm: Table 2, rate 125 ppm; for pest or weed control at 250 ppm: rate 250 ppm
In short: as §2

[7] = system: Cocklebur (Xanthium strumarium); experiment: as above; assay type: in vivo; conditions: Xanthium strumarium, post-emergence, 336 h, visual score after 2 weeks, read-out: Post-emergent % control XANST; for pest or weed control at 500 ppm / pest or weed control at 250 ppm: Table 1; for pest or weed control at 500 ppm: rate 500 ppm, 0 no injury, 100 complete kill; for pest or weed control at 125 ppm: Table 2, rate 125 ppm; for pest or weed control at 250 ppm: rate 250 ppm
In short: as §2

[8] = system: Lambsquarter (Chenopodium album); experiment: as above; assay type: in vivo; conditions: Chenopodium album, post-emergence, 336 h, visual score after 2 weeks, read-out: Post-emergent % control CHEAL; for pest or weed control at 500 ppm / pest or weed control at 250 ppm: Table 1; for pest or weed control at 500 ppm: rate 500 ppm; for pest or weed control at 125 ppm: Table 2, rate 125 ppm; for pest or weed control at 250 ppm: rate 250 ppm
In short: as §2

In the case of `COC(=O)c1nc(-c2ccc(Cl)cc2F)c(F)c(N)c1F` [Compound 93, Methyl 4-amino-3,5-difluoro-6-(4-chloro-2-fluorophenyl)pyridine-2-carboxylate], the pest or weed control at 560 ppm [1] is reported as 100%, the pest or weed control at 560 ppm [2] is reported as 50% and the pest or weed control at 560 ppm [3] is reported as 100%. For the same molecule, the pest or weed control at 560 ppm [4] was 30%, the pest or weed control at 500 ppm [5] was 80% and the pest or weed control at 500 ppm [6] was 90%. For the same molecule, the pest or weed control at 500 ppm [7] was 100%, the pest or weed control at 500 ppm [8] was 95% and the melting point was 182 to 183 °C.
Molecule `Nc1c(Cl)c(C(=O)O)nc(-c2ccc(Cl)cc2)c1Cl` [Compound 198, 4-Amino-3,5-dichloro-6-(4-chlorophenyl)pyridine-2-carboxylic acid] has a pest or weed control at 560 ppm [1] of 100%, a pest or weed control at 560 ppm [2] of 90% and a pest or weed control at 560 ppm [3] of 100%. The pest or weed control at 560 ppm [4] was 80%, the pest or weed control at 500 ppm [5] was 90% and the pest or weed control at 125 ppm [5] was 98%. The pest or weed control at 500 ppm [6] was 90%, the pest or weed control at 125 ppm [6] was 70% and the pest or weed control at 500 ppm [7] was 100%. For the same molecule, the pest or weed control at 125 ppm [7] was 100%, the pest or weed control at 500 ppm [8] was 100% and the pest or weed control at 125 ppm [8] was 100%. The melting point was 164 to 165 °C.
`COC(=O)c1nc(-c2cccc(Cl)c2)cc(N)c1Cl` [Compound 27, Methyl 4-amino-3-chloro-6-(3-chlorophenyl)pyridine-2-carboxylate] showed a pest or weed control at 560 ppm [1] of 100%, a pest or weed control at 560 ppm [2] of 100% and a pest or weed control at 560 ppm [3] of 100%. The pest or weed control at 560 ppm [4] was 100%, the pest or weed control at 250 ppm [5] was 60% and the pest or weed control at 250 ppm [6] was 70%. It also gave a pest or weed control at 250 ppm [7] of 95%, a pest or weed control at 250 ppm [8] of 95% and a melting point of 141 °C.
For `COC(=O)c1nc(-c2ccc(OC)cc2)cc(N)c1Cl` [Compound 17, Methyl 4-amino-3-chloro-6-(4-methoxyphenyl)pyridine-2-carboxylate], the pest or weed control at 560 ppm [1] was 100%, the pest or weed control at 560 ppm [2] was 100% and the pest or weed control at 560 ppm [3] was 100%. The pest or weed control at 560 ppm [4] was 100%, the pest or weed control at 250 ppm [5] was 70% and the pest or weed control at 250 ppm [6] was 70%. For the same molecule, the pest or weed control at 250 ppm [7] was 100%, the pest or weed control at 250 ppm [8] was 100% and the melting point was 148 to 149 °C.
For `COC(=O)c1nc(-c2ccc(C(F)(F)F)cc2)cc(N)c1Cl` [Compound 28, Methyl 4-amino-3-chloro-6-[4-(trifluoromethyl)phenyl]pyridine-2-carboxylate], the pest or weed control at 560 ppm [1] was 100%, the pest or weed control at 560 ppm [2] was 100% and the pest or weed control at 560 ppm [3] was 100%. The pest or weed control at 560 ppm [4] was 100%, the pest or weed control at 250 ppm [5] was 80% and the pest or weed control at 250 ppm [6] was 75%. The pest or weed control at 250 ppm [7] was 100%, the pest or weed control at 250 ppm [8] was 100% and the melting point was 149 °C.
Work on `COC(=O)c1nc(-c2ccc(Cl)cc2Cl)cc(N)c1Cl` [Compound 13, Methyl 4-amino-3-chloro-6-(2,4-dichlorophenyl)pyridine-2-carboxylate] yielded a pest or weed control at 560 ppm [1] of 100%, a pest or weed control at 560 ppm [2] of 100% and a pest or weed control at 560 ppm [3] of 100%. It also gave a pest or weed control at 560 ppm [4] of 90%, a pest or weed control at 250 ppm [5] of 80% and a pest or weed control at 250 ppm [6] of 70%. The pest or weed control at 250 ppm [7] was 100%, the pest or weed control at 250 ppm [8] was 100% and the melting point was 130 to 131 °C.
With `Nc1c(F)c(-c2ccc3c(c2)OCO3)nc(C(=O)O)c1Cl` [Compound 196, 4-Amino-3-chloro-5-fluoro-6-(3,4-methylenedioxyphenyl)pyridine-2-carboxylic acid] the pest or weed control at 560 ppm [1] was 100%, the pest or weed control at 560 ppm [2] was 100% and the pest or weed control at 560 ppm [3] was 100%. It also gave a pest or weed control at 560 ppm [4] of 100%, a pest or weed control at 250 ppm [5] of 98% and a pest or weed control at 125 ppm [5] of 100%. It also gave a pest or weed control at 250 ppm [6] of 100%, a pest or weed control at 125 ppm [6] of 100% and a pest or weed control at 250 ppm [7] of 100%. It also gave a pest or weed control at 125 ppm [7] of 100%, a pest or weed control at 250 ppm [8] of 100% and a pest or weed control at 125 ppm [8] of 100%. The melting point was 169 °C.
`COC(=O)c1nc(-c2ccc(C)cc2)c(F)c(N)c1F` [Compound 91, Methyl 4-amino-3,5-difluoro-6-(4-methylphenyl)pyridine-2-carboxylate] showed a pest or weed control at 560 ppm [1] of 100%, a pest or weed control at 560 ppm [2] of 60% and a pest or weed control at 560 ppm [3] of 90%. It also gave a pest or weed control at 560 ppm [4] of 100%, a pest or weed control at 500 ppm [5] of 80% and a pest or weed control at 500 ppm [6] of 90%. The pest or weed control at 500 ppm [7] was 100%, the pest or weed control at 500 ppm [8] was 100% and the melting point was 145 to 146 °C.
Work on `Nc1cc(-c2ccc(Cl)cc2F)nc(C(=O)O)c1Cl` [Compound 168, 4-Amino-3-chloro-6-(4-chloro-2-fluorophenyl)pyridine-2-carboxylic acid] yielded a pest or weed control at 140 ppm [1] of 100%, a pest or weed control at 140 ppm [2] of 100% and a pest or weed control at 140 ppm [3] of 100%. It also gave a pest or weed control at 140 ppm [4] of 100%, a pest or weed control at 500 ppm [5] of 90% and a pest or weed control at 500 ppm [6] of 85%. For the same molecule, the pest or weed control at 500 ppm [7] was 100%, the pest or weed control at 500 ppm [8] was 100% and the melting point was 162 to 163 °C.
`COC(=O)c1nc(-c2ccc(Cl)cc2)cc(N)c1Cl` [Compound 19, Methyl 4-amino-3-chloro-6-(4-chlorophenyl)pyridine-2-carboxylate] gave a pest or weed control at 560 ppm [1] of 100%, a pest or weed control at 560 ppm [2] of 100% and a pest or weed control at 560 ppm [3] of 100%. The pest or weed control at 560 ppm [4] was 100%, the pest or weed control at 250 ppm [5] was 90% and the pest or weed control at 250 ppm [6] was 80%. For the same molecule, the pest or weed control at 250 ppm [7] was 100%, the pest or weed control at 250 ppm [8] was 95% and the melting point was 132 °C.
In the case of `Cc1ccc(-c2nc(C(=O)O)c(Cl)c(N)c2F)cc1` [Compound 163, 4-Amino-3-chloro-5-fluoro-6-(4-methylphenyl)pyridine-2-carboxylic acid], the pest or weed control at 140 ppm [1] is reported as 98%, the pest or weed control at 140 ppm [2] is reported as 95% and the pest or weed control at 140 ppm [3] is reported as 100%. It also gave a pest or weed control at 140 ppm [4] of 100%, a pest or weed control at 250 ppm [5] of 70% and a pest or weed control at 125 ppm [5] of 70%. For the same molecule, the pest or weed control at 250 ppm [6] was 70%, the pest or weed control at 125 ppm [6] was 70% and the pest or weed control at 250 ppm [7] was 100%. For the same molecule, the pest or weed control at 125 ppm [7] was 100%, the pest or weed control at 250 ppm [8] was 95% and the pest or weed control at 125 ppm [8] was 90%. For the same molecule, the melting point was 145 to 148 °C (dec.).
For `Cc1cccc(-c2cc(N)c(Cl)c(C(=O)O)n2)c1` [Compound 138, 4-Amino-3-chloro-6-(3-methylphenyl)pyridine-2-carboxylic acid], the pest or weed control at 560 ppm [1] was 100%, the pest or weed control at 560 ppm [2] was 98% and the pest or weed control at 560 ppm [3] was 100%. The pest or weed control at 560 ppm [4] was 100%, the pest or weed control at 250 ppm [5] was 20% and the pest or weed control at 250 ppm [6] was 50%. For the same molecule, the pest or weed control at 250 ppm [7] was 100%, the pest or weed control at 250 ppm [8] was 100% and the melting point was 173 to 175 °C.
For `COC(=O)c1nc(-c2ccc(Cl)cc2)c(Cl)c(N)c1Cl` [Compound 86, Methyl 4-amino-3,5-dichloro-6-(4-chlorophenyl)pyridine-2-carboxylate], the pest or weed control at 560 ppm [1] was 100%, the pest or weed control at 560 ppm [2] was 40% and the pest or weed control at 560 ppm [3] was 100%. It also gave a pest or weed control at 560 ppm [4] of 40%, a pest or weed control at 500 ppm [5] of 90% and a pest or weed control at 125 ppm [5] of 100%. It also gave a pest or weed control at 500 ppm [6] of 90%, a pest or weed control at 125 ppm [6] of 80% and a pest or weed control at 500 ppm [7] of 100%. The pest or weed control at 125 ppm [7] was 100%, the pest or weed control at 500 ppm [8] was 100% and the pest or weed control at 125 ppm [8] was 100%. For the same molecule, the melting point was 160 to 162 °C.
